Experimental data: patent publication US20210106679A1, “Silaffin Silica Particle Adjuvant” (UNIVERSITÄT WIEN, priority 2017, published 2021)
Entries after “also recorded” stand apart in the source; their conditions may differ. *1 amine or outer side, *2 acyl side, *3 side chain or, on linkers, in order; H or OH if unused. Where no end group is shown, it is not given here. [ ]: non-standard residue; d: D form. εLys = N[C@@H](CCCCN[*:1])C(=O)[*:2]

Tests used:
[1] = Circular dichroism of peptide solutions; assay type: physicochemical; details: for CD spectrum profile: 0.8 mM in 50 mM phosphate buffer pH 7, after 24 h incubation
Procedure: CD spectra were recorded on peptide solutions at 0.8 mM (by weight) in 50 mM phosphate buffer at pH 7. Solutions had been incubated at room temperature for a minimum of 24 h. Scans were performed in 1 nm increments with 3 s scans at 20° C. and averaged over 5 scans.
The CD spectrum of peptide 1 in the A range of 200-250 nm was fitted by use of the novel Beta Structure Selection algorithm with normalized root mean square deviation of 0.018 (A. Micsonai, F. Wien, L. Kernya, Y.-H. Lee, Y. Goto, M. Réfrégiers and J. Kardos, Proc. Natl. Acad. Sci., 2015, 112, E3095-E3103). The algorithm predicts that the secondary or tertiary structure of the peptide consists of approximately 56% random coils, 27% beta-sheets and 17% beta-turns.

[2] = TEM imaging of peptides and peptide-silica mixtures; assay type: physicochemical; details: phosphate buffer, absence of silicic acid
Procedure: Peptide and peptide-silica mixtures suspended in 50 mM phosphate buffer were applied onto carbon coated copper grid and subsequently viewed with Philips CM200 electron microscope operated at 200 kV.

[3] = from a solution of silicic acid; cited from earlier work
[4] = Silica precipitation (mineralisation) by peptides; details: silicic acid 25 mM, peptide 0.5 mg/mL, 50 mM phosphate buffer pH 7, RT
Procedure: The individual members of the peptide library were subjected to silica mineralisation conditions analogous to those used for the R5 peptide (C. C. Lechner and C. F. W. Becker, Chem. Sci., 2012, 3, 3500). Phosphate buffered solution at pH 7 was used as a background for the reaction, and peptides were individually incubated in this buffer for 24 h prior to silica precipitation. White precipitate was observable in all samples within the first five minutes following addition of the silicic acid.
Peptides were dissolved to a final concentration of 0.5 mg/mL in 50 mM potassium phosphate buffer at pH 7.0 and left standing at room temperature overnight. Silicic acid was generated by hydrolysis of 250 mM tetramethoxysilane in 1 mM aqueous HCl for 4 min. Silica precipitation reactions were initiated by addition of silicic acid to peptide solutions to a final concentration of 25 mM. Reactions were incubated at RT for 30 min. Silica precipitates were collected by centrifugation (5 min, 16.873×g) and washed twice with water. […] All precipitations were carried out in triplicates.

[5] = CD 200-250 nm fitted with Beta Structure Selection algorithm

Q: With RRILKRRIL [Peptide 1] as the substance, how does the CD spectrum profile [1] read?
A: random coil conformation

Q: And the “secondary structure: beta-sheets” value [1, 5]?
A: ~27%

Q: And the “secondary structure: beta-turns” value [1, 5]?
A: ~17%

Q: What about the “secondary structure: random coils” value [1, 5] of the same substance?
A: approximately 56%

Q: Which CD spectrum profile [1] does the source give for “RRIIL(εK)RRIL (RRIIL[εLys]RRIL-OH; also: Lys6 bound via its epsilon amine to the preceding Leu (branched)) [Peptide 9]” here?
A: profile was similar to that of peptides 1

Q: For rriil(εK)RRIL [Peptide 8], which “diameter of peptide rods or narrow sheets (TEM)” value [2] is on record?
A: 80-200 nm

Q: And the CD spectrum profile [1]?
A: significantly lower magnitudes than those for peptides 1-4; also recorded: the minimum at 200 nm disappeared and the curve gained a positive character

Q: For rril(εK)RRIIL [Peptide 7], which CD spectrum profile [1] is on record?
A: significantly lower magnitudes than those for peptides 1-4

Q: For KRRIL (truncated silaffin peptide I), which “silica precipitation and morphology” value [3] is on record?
A: precipitate silica with a random morphology

Q: With rriIKRRIL [Peptide 5] as the substance, how does the CD spectrum profile [1] read?
A: significantly lower magnitudes than those for peptides 1-4

Q: Which CD spectrum profile [1] does the source give for rrilkrril [Peptide 2] here?
A: mirror image of the spectrum of peptide 1

Q: Which “capacity to precipitate silica” value [4] does the source give for rriil(εK)RRLL [Peptide 66] here?
A: still able to precipitate silica

Q: With SSKKSGSYSGSKGSKRRIL [Peptide R5] as the substance, how does the “silica precipitation and morphology” value [3] read?
A: highly efficient in precipitating monodisperse silica particles

Q: For rril(εK)RRIL [Peptide 6], which CD spectrum profile [1] is on record?
A: significantly lower magnitudes than those for peptides 1-4
